# According to ChEMBL document CHEMBL1201862, “PubChem BioAssay data set” (2004):
# “And” between values parts separate entries of the source, which are not always exact repeats. Equal entries are not always repeated.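 48-hour exposure; five concentrations; linearly interpolated endpoints. The concentration for 50% growth inhibition is given as GI50.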 The source made the active and inactive calls. Cut-off read from the data, not from the text of the source: active = GI50 up to about 1.1 µM and inactive = higher.
# Assays:
# Assay in all cases: inhibition of tumour cell growth, NCI panel, 48 h
# 786-0 = tested on: 786-0
# A498 = tested on: A498
# A549 = tested on: A549
# ACHN = tested on: ACHN
# BT-549 = tested on: BT-549
# CCRF-CEM = tested on: CCRF-CEM
# COLO 205 = tested on: COLO 205
# DU-145 = tested on: DU-145
# EKVX = tested on: EKVX
# HCC 2998 = tested on: HCC 2998
# HCT-116 = tested on: HCT-116
# HCT-15 = tested on: HCT-15
# HL-60 = tested on: HL-60
# HOP-62 = tested on: HOP-62
# HOP-92 = tested on: HOP-92
# HT-29 = tested on: HT-29
# Hs-578T = tested on: Hs-578T
# IGROV-1 = tested on: IGROV-1
# K562 = tested on: K562
# KM12 = tested on: KM12
# LOX IMVI = tested on: LOX IMVI
# M14 = tested on: M14
# MCF7 = tested on: MCF7
# MDA-MB-231 = tested on: MDA-MB-231
# MDA-MB-435 = tested on: MDA-MB-435
# MOLT-4 = tested on: MOLT-4
# Malme-3M = tested on: Malme-3M
# NCI-H226 = tested on: NCI-H226
# NCI-H23 = tested on: NCI-H23
# NCI-H460 = tested on: NCI-H460
# NCI-H522 = tested on: NCI-H522
# NCI/ADR-RES = tested on: NCI/ADR-RES
# OVCAR-3 = tested on: OVCAR-3
# OVCAR-4 = tested on: OVCAR-4
# OVCAR-8 = tested on: OVCAR-8
# PC-3 = tested on: PC-3
# RPMI-8226 = tested on: RPMI-8226
# RXF 393 = tested on: RXF 393
# SF-268 = tested on: SF-268
# SF-295 = tested on: SF-295
# SF-539 = tested on: SF-539
# SK-MEL-28 = tested on: SK-MEL-28
# SK-OV-3 = tested on: SK-OV-3
# SN12C = tested on: SN12C
# SNB-75 = tested on: SNB-75
# SR = tested on: SR
# SW-620 = tested on: SW-620
# T47D = tested on: T47D
# TK-10 = tested on: TK-10
# U-251 = tested on: U-251
# UACC-257 = tested on: UACC-257
# UACC-62 = tested on: UACC-62
# UO-31 = tested on: UO-31
# MDA-N = tested on: MDA-N
# OVCAR-5 = tested on: OVCAR-5
# SK-MEL-2 = tested on: SK-MEL-2
# SK-MEL-5 = tested on: SK-MEL-5
# CAKI-1 = tested on: CAKI-1
# SNB-19 = tested on: SNB-19
compound,measurement,setting,value
[N-]=[N+]=Nc1cccc(-c2nnc(Cl)cc2O)c1,GI50,786-0,> 100 µM (inactive)
same,GI50,A498,> 100 µM (inactive)
same,GI50,A549,> 100 µM (inactive)
same,GI50,ACHN,> 100 µM (inactive)
same,GI50,BT-549,> 100 µM (inactive)
same,GI50,CCRF-CEM,> 100 µM (inactive)
same,GI50,COLO 205,> 100 µM (inactive)
same,GI50,DU-145,> 100 µM (inactive)
same,GI50,EKVX,> 100 µM (inactive)
same,GI50,HCC 2998,> 100 µM (inactive)
same,GI50,HCT-116,> 100 µM (inactive)
same,GI50,HCT-15,> 100 µM
same,GI50,HL-60,> 100 µM (inactive)
same,GI50,HOP-62,> 100 µM (inactive)
same,GI50,HOP-92,> 100 µM (inactive)
same,GI50,HT-29,> 100 µM (inactive)
same,GI50,Hs-578T,> 100 µM (inactive)
same,GI50,IGROV-1,> 100 µM (inactive)
same,GI50,K562,> 100 µM (inactive)
same,GI50,KM12,> 100 µM (inactive)
same,GI50,LOX IMVI,> 100 µM (inactive)
same,GI50,M14,> 100 µM (inactive)
same,GI50,MCF7,> 100 µM (inactive)
same,GI50,MDA-MB-231,> 100 µM (inactive)
same,GI50,MDA-MB-435,> 100 µM (inactive)
same,GI50,MOLT-4,> 100 µM (inactive)
same,GI50,Malme-3M,> 100 µM (inactive)
same,GI50,NCI-H226,> 100 µM (inactive)
same,GI50,NCI-H23,> 100 µM (inactive)
same,GI50,NCI-H460,> 100 µM (inactive)
same,GI50,NCI-H522,> 100 µM (inactive)
same,GI50,NCI/ADR-RES,> 100 µM (inactive)
same,GI50,OVCAR-3,> 100 µM (inactive)
same,GI50,OVCAR-4,> 100 µM (inactive)
same,GI50,OVCAR-8,> 100 µM (inactive)
same,GI50,PC-3,> 100 µM (inactive)
same,GI50,RPMI-8226,> 100 µM (inactive)
same,GI50,RXF 393,> 100 µM (inactive)
same,GI50,SF-268,> 100 µM (inactive)
same,GI50,SF-295,> 100 µM (inactive)
same,GI50,SF-539,> 100 µM (inactive)
same,GI50,SK-MEL-28,> 100 µM (inactive)
same,GI50,SK-OV-3,> 100 µM (inactive)
same,GI50,SN12C,> 100 µM (inactive)
same,GI50,SNB-75,89.7 µM (inactive)
same,GI50,SR,> 100 µM (inactive)
same,GI50,SW-620,> 100 µM (inactive)
same,GI50,T47D,> 100 µM (inactive)
same,GI50,TK-10,> 100 µM (inactive)
same,GI50,U-251,> 100 µM (inactive)
same,GI50,UACC-257,> 100 µM (inactive)
same,GI50,UACC-62,> 100 µM (inactive)
same,GI50,UO-31,> 10 µM (inactive)
CC1(C)[C@H](O)CC[C@]2(C)C3=CC[C@@]4(C)[C@@H]5C[C@](C)(CO)CC[C@]5(C)CC[C@]4(C)C3=CC[C@@H]12,GI50,A549,1.75 µM (inactive)
same,GI50,ACHN,2.13 µM (inactive)
same,GI50,BT-549,> 100 µM (inactive)
same,GI50,CCRF-CEM,1.63 µM (inactive)
same,GI50,COLO 205,3.23 µM (inactive)
same,GI50,DU-145,> 100 µM (inactive)
same,GI50,EKVX,> 100 µM (inactive)
same,GI50,HCT-116,2.01 µM (inactive)
same,GI50,HL-60,> 100 µM (inactive)
same,GI50,HOP-62,> 100 µM (inactive)
same,GI50,HOP-92,> 100 µM (inactive)
same,GI50,IGROV-1,> 100 µM (inactive)
same,GI50,M14,> 100 µM (inactive)
same,GI50,MCF7,> 100 µM (inactive)
same,GI50,MDA-N,> 100 µM (inactive)
same,GI50,MOLT-4,> 100 µM (inactive)
same,GI50,Malme-3M,> 100 µM (inactive)
same,GI50,NCI-H23,> 100 µM (inactive)
same,GI50,NCI-H460,1.91 µM (inactive)
same,GI50,OVCAR-3,1.79 µM (inactive)
same,GI50,OVCAR-5,> 100 µM (inactive)
same,GI50,OVCAR-8,2.07 µM (inactive)
same,GI50,SF-268,> 100 µM (inactive)
same,GI50,SK-MEL-28,> 100 µM (inactive)
same,GI50,SK-MEL-2,> 100 µM (inactive)
same,GI50,SK-MEL-5,> 100 µM (inactive)
same,GI50,SK-OV-3,> 100 µM (inactive)
same,GI50,SN12C,2.1 µM (inactive)
same,GI50,SR,1.75 µM (inactive)
same,GI50,U-251,1.84 µM (inactive)
same,GI50,UACC-257,> 100 µM (inactive)
same,GI50,UACC-62,> 100 µM (inactive)
same,GI50,UO-31,1.98 µM (inactive)
C[C@@H](CCO)OC1OC(COC(=O)C(C)(C)C)C(OC(=O)C(C)(C)C)C(OC(=O)C(C)(C)C)C1OC(=O)C(C)(C)C (stereo partly drawn),GI50,786-0,39.5 µM (inactive)
same,GI50,A498,> 100 µM (inactive)
same,GI50,A549,14.1 µM (inactive)
same,GI50,ACHN,34.2 µM (inactive)
same,GI50,BT-549,73.5 µM (inactive)
same,GI50,CAKI-1,5.97 µM (inactive)
same,GI50,CCRF-CEM,33.7 µM (inactive)
same,GI50,COLO 205,> 100 µM (inactive)
same,GI50,DU-145,> 100 µM (inactive)
same,GI50,EKVX,48.4 µM (inactive)
same,GI50,HCC 2998,16.6 µM (inactive)
same,GI50,HCT-116,18 µM (inactive)
same,GI50,HCT-15,32.4 µM
same,GI50,HL-60,5.89 µM (inactive)
same,GI50,HOP-62,85.5 µM (inactive)
same,GI50,HOP-92,13.2 µM (inactive)
same,GI50,HT-29,13.6 µM (inactive)
same,GI50,Hs-578T,20.7 µM (inactive)
same,GI50,IGROV-1,28.2 µM (inactive)
same,GI50,K562,89.7 µM (inactive)
same,GI50,KM12,> 10 µM (inactive)
same,GI50,LOX IMVI,51.4 µM (inactive)
same,GI50,M14,56.5 µM (inactive)
same,GI50,MCF7,15.1 µM (inactive)
same,GI50,MDA-MB-231,3.4 µM (inactive)
same,GI50,MDA-MB-435,34.5 µM (inactive)
same,GI50,MOLT-4,12.9 µM (inactive)
same,GI50,NCI-H226,20.9 µM (inactive)
same,GI50,NCI-H23,> 100 µM (inactive)
same,GI50,NCI-H460,16.1 µM (inactive)
same,GI50,NCI-H522,11.7 µM (inactive)
same,GI50,NCI/ADR-RES,> 100 µM (inactive)
same,GI50,OVCAR-3,86.7 µM (inactive)
same,GI50,OVCAR-4,27 µM (inactive)
same,GI50,OVCAR-5,> 100 µM (inactive)
same,GI50,OVCAR-8,96.8 µM (inactive)
same,GI50,PC-3,22.2 µM (inactive)
same,GI50,RPMI-8226,15.5 µM (inactive)
same,GI50,RXF 393,7.46 µM (inactive)
same,GI50,SF-268,50.6 µM (inactive)
same,GI50,SF-295,4.13 µM (inactive)
same,GI50,SF-539,33.4 µM (inactive)
same,GI50,SK-MEL-28,21.9 µM (inactive)
same,GI50,SK-MEL-2,43.6 µM (inactive)
same,GI50,SK-MEL-5,4.97 µM (inactive)
same,GI50,SK-OV-3,58.7 µM (inactive)
same,GI50,SN12C,22.1 µM (inactive)
same,GI50,SNB-19,12.6 µM (inactive)
same,GI50,SNB-75,32.1 µM (inactive)
same,GI50,SR,84.7 µM (inactive)
same,GI50,SW-620,51.1 µM (inactive)
same,GI50,T47D,> 100 µM (inactive)
same,GI50,TK-10,50.7 µM (inactive)
same,GI50,U-251,16.7 µM (inactive)
same,GI50,UACC-257,25.5 µM (inactive)
same,GI50,UACC-62,48 µM (inactive)
COC(=O)CCC(C)[C@H]1CCC2C3C(C[C@H](OC(C)=O)[C@@]21C)[C@@]1(C)CCC2(C[C@H]1C[C@H]3OC(C)=O)OOC1(CCC(C)CC1)OO2 (stereo partly drawn),GI50,A498,> 100 µM (inactive)
same,GI50,ACHN,10.1 µM (inactive) and 6.9 µM (inactive)
same,GI50,CCRF-CEM,6.38 µM (inactive) and 4.59 µM (inactive)
same,GI50,HCC 2998,51.3 µM (inactive)
same,GI50,HCT-116,5.41 µM (inactive) and 2.77 µM (inactive)
same,GI50,HT-29,50.5 µM (inactive) and 55.7 µM (inactive)
same,GI50,LOX IMVI,7.8 µM (inactive) and 5.15 µM (inactive)
same,GI50,M14,32.4 µM (inactive) and 18.2 µM (inactive)
same,GI50,MDA-MB-231,14 µM (inactive) and 20.2 µM (inactive)
same,GI50,MDA-N,27.4 µM (inactive) and 15.7 µM (inactive)
same,GI50,Malme-3M,9.51 µM (inactive) and 17.9 µM (inactive)
same,GI50,NCI-H226,56.6 µM (inactive) and 31.8 µM (inactive)
same,GI50,NCI/ADR-RES,> 100 µM (inactive) and 67.9 µM (inactive)
same,GI50,OVCAR-3,7.1 µM (inactive) and 6.27 µM (inactive)
same,GI50,OVCAR-5,> 100 µM (inactive)
same,GI50,RXF 393,72.3 µM (inactive)
same,GI50,SF-539,> 100 µM (inactive) and 58.6 µM (inactive)
same,GI50,SK-MEL-28,> 100 µM (inactive)
same,GI50,SK-MEL-5,15.7 µM (inactive) and 9.79 µM (inactive)
same,GI50,SK-OV-3,> 100 µM (inactive)
same,GI50,SN12C,34 µM (inactive) and 33.4 µM (inactive)
same,GI50,SNB-19,75 µM (inactive)
same,GI50,SR,4.55 µM (inactive) and 2.46 µM (inactive)
same,GI50,T47D,10.5 µM (inactive)
same,GI50,U-251,9.16 µM (inactive) and 5.16 µM (inactive)
same,GI50,UACC-62,< 0.01 µM (active)
